According to patent USRE39591E1, “6-O-substituted ketolides having antibacterial activity” (Abbott Laboratories, priority 1996, dated 2007):
Values after ≈ are worked out from the molar mass of the structure shown.

System: up to 32 different microorganisms
Assay: in vitro antibacterial activity (MIC), agar dilution on Brain Heart Infusion (BHI) agar with Steers replicator
Assay type: cell-based
Details: unit assumed
Experimental: Representative compounds of the present invention were assayed in vitro for antibacterial activity as follows: Twelve petri dishes containing successive aqueous dilutions of the test compound mixed with 10 mL of sterilized Brain Heart Infusion (BHI) agar (Difco 0148-01-5) were prepared. Each plate was inoculated with 1:100 (or 1:10 for slow-growing strains, such as Micrococcus and Streptococcus) dilutions of up to 32 different microorganisms, using a Steers replicator block. The inoculated plates were incubated at 35°-37° C. for 20 to 24 hours. In addition, a control plate, using BHI agar containing no test compound, was prepared and incubated at the beginning and end of each test.
An additional plate containing a compound having known susceptibility patterns for the organisms being tested and belonging to the same antibiotic class as the test compound was also prepared and incubated as a further control, as well as to provide test-to-test comparability. Erythromycin A was used for this purpose.
After incubation, each plate was visually inspected. The minimum inhibitory concentration (MIC) was defined as the lowest concentration of drug yielding no growth, a slight haze, or sparsely isolated colonies on the inoculum spot as compared to the growth control.

Structure (SMILES): CC[C@H]1OC(=O)[C@H](C)C(=O)[C@H](C)[C@@H](O[C@@H]2O[C@H](C)C[C@H](N(C)C)[C@H]2O)[C@@](C)(OCC=Cc2ccccc2)C[C@@H](C)C(=O)[C@H](C)[C@H]2OC(=O)O[C@@]21C [Example 72, Compound of Formula (IX): L is CO, T is O, R is —CH2CH═CH-Phenyl]
- MIC (Candida albicans CCH 442 (code TT)): > 100 µg/mL
- MIC (Enterococcus faecism ATCC 8043 (code II)): 0.05 µg/mL
- MIC (Escherichia coli DC-2 (code SS)): > 100 µg/mL
- MIC (Escherichia coli SS (code RR)): 0.78 µg/mL
- MIC (Haemophilis influenzae DILL AMP R (code WW)): 8 µg/mL
- MIC (Micrococcus luteus ATCC 4698 (code PP)): 0.1 µg/mL
- MIC (Micrococcus luteus ATCC 9341 (code OO)): 0.01 µg/mL
- MIC (Mycobacterium smegmatis ATCC 114 (code UU)): 0.78 µg/mL
- MIC (Nocardia Asteroides ATCC9970 (code VV)): 0.1 µg/mL
- MIC (Staphylococcus aureus 1775 (code GG)): 100 µg/mL
- MIC (Staphylococcus aureus A5177 (code BB)): 0.1 µg/mL
- MIC (Staphylococcus aureus A-5278 (code CC)): > 100 µg/mL
- MIC (Staphylococcus aureus ATCC 6538P (code AA)): 0.1 µg/mL
- MIC (Staphylococcus aureus CMX 553 (code FF)): 0.2 µg/mL
- MIC (Staphylococcus aureus CMX 642A (code DD)): 0.1 µg/mL
- MIC (Staphylococcus aureus NCTC10649M (code EE)): 0.1 µg/mL
- MIC (Staphylococcus epidermidis 3519 (code HH)): 0.1 µg/mL
- MIC (Streptococcus Pneumonia 5649 (code ZZA)): 0.5 µg/mL
- MIC (Streptococcus Pneumonia 5979 (code ZZ)): 64 µg/mL
- MIC (Streptococcus Pneumonia ATCC6303 (code XX)): 0.06 µg/mL
- MIC (Streptococcus Pneumonia GYR 1171 (code YY)): 0.06 µg/mL
- MIC (Streptococcus agalactiae CMX 508 (code KK)): 0.01 µg/mL
- MIC (Streptococcus bovis A-5169 (code JJ)): 0.01 µg/mL
- MIC (Streptococcus pyogenes 930 (code MM)): 50 µg/mL
- MIC (Streptococcus pyogenes EES61 (code LL)): < 0.005 µg/mL
- MIC (Streptococcus pyogenes PIU 2548 (code NN)): 0.2 µg/mL

Structure (SMILES): CCC1OC(=O)C(C)C(=O)C(C)C(OC2OC(C)CC(N(C)C)C2O)C(C)(OCC=Cc2ccnc3ccccc23)CC(C)C(=O)C(C)C2NC(=O)OC12C (centres unmarked) [Example 213, R is —CH2CH═CH-(4-quinolyl)]
- MIC (organism code AA): 0.2 µg/mL (≈ 0.261 µM)
- MIC (organism code BB): 0.2 µg/mL (≈ 0.261 µM)
- MIC (organism code CC): > 100 µg/mL
- MIC (organism code DD): 0.2 µg/mL (≈ 0.261 µM)
- MIC (organism code EE): 0.2 µg/mL (≈ 0.261 µM)
- MIC (organism code FF): 0.2 µg/mL (≈ 0.261 µM)
- MIC (organism code GG): > 100 µg/mL
- MIC (organism code HH): 0.2 µg/mL (≈ 0.261 µM)
- MIC (organism code II): 0.1 µg/mL (≈ 0.131 µM)
- MIC (organism code JJ): 0.05 µg/mL (≈ 0.0653 µM)
- MIC (organism code KK): 0.05 µg/mL (≈ 0.0653 µM)
- MIC (organism code LL): 0.02 µg/mL (≈ 0.0261 µM)
- MIC (organism code MM): 100 µg/mL (≈ 131 µM)
- MIC (organism code NN): 0.39 µg/mL (≈ 0.509 µM)
- MIC (organism code OO): 0.05 µg/mL (≈ 0.0653 µM)
- MIC (organism code PP): 0.2 µg/mL (≈ 0.261 µM)
- MIC (organism code QQ): 100 µg/mL (≈ 131 µM)
- MIC (organism code RR): 0.39 µg/mL (≈ 0.509 µM)
- MIC (organism code SS): > 100 µg/mL
- MIC (organism code TT): > 100 µg/mL
- MIC (organism code UU): 0.39 µg/mL (≈ 0.509 µM)
- MIC (organism code VV): 0.39 µg/mL (≈ 0.509 µM)
- MIC (organism code WW): 4 µg/mL (≈ 5.22 µM)
- MIC (organism code XX): 0.03 µg/mL (≈ 0.0392 µM)
- MIC (organism code YY): 0.03 µg/mL (≈ 0.0392 µM)
- MIC (organism code ZZ): > 128 µg/mL
- MIC (organism code ZZA): 1 µg/mL (≈ 1.31 µM)

Structure (SMILES): CCC1OC(=O)C(C)C(=O)C(C)C(OC2OC(C)CC(N(C)C)C2O)C(C)(OCC=Cc2ccc3nccnc3c2)CC(C)C(=O)C(C)C2NC(=O)OC12C (centres unmarked) [Example 207, R is —CH2CH═CH-(6-quinoxalinyl)]
- MIC (organism code AA): 0.1 µg/mL (≈ 0.13 µM)
- MIC (organism code BB): 0.1 µg/mL (≈ 0.13 µM)
- MIC (organism code CC): > 100 µg/mL
- MIC (organism code DD): 0.1 µg/mL (≈ 0.13 µM)
- MIC (organism code EE): 0.1 µg/mL (≈ 0.13 µM)
- MIC (organism code FF): 0.1 µg/mL (≈ 0.13 µM)
- MIC (organism code GG): > 100 µg/mL
- MIC (organism code HH): 0.1 µg/mL (≈ 0.13 µM)
- MIC (organism code II): 0.02 µg/mL (≈ 0.0261 µM)
- MIC (organism code JJ): ≤ 0.005 µg/mL
- MIC (organism code KK): ≤ 0.005 µg/mL
- MIC (organism code LL): 0.01 µg/mL (≈ 0.013 µM)
- MIC (organism code MM): 1.56 µg/mL (≈ 2.03 µM)
- MIC (organism code NN): 0.2 µg/mL (≈ 0.261 µM)
- MIC (organism code OO): 0.01 µg/mL (≈ 0.013 µM)
- MIC (organism code PP): 0.1 µg/mL (≈ 0.13 µM)
- MIC (organism code QQ): 25 µg/mL (≈ 32.6 µM)
- MIC (organism code RR): 0.2 µg/mL (≈ 0.261 µM)
- MIC (organism code SS): 50 µg/mL (≈ 65.2 µM)
- MIC (organism code TT): > 100 µg/mL
- MIC (organism code UU): 0.39 µg/mL (≈ 0.509 µM)
- MIC (organism code VV): 0.02 µg/mL (≈ 0.0261 µM)
- MIC (organism code WW): 2 µg/mL (≈ 2.61 µM)
- MIC (organism code XX): 0.015 µg/mL (≈ 0.0196 µM)
- MIC (organism code YY): 0.015 µg/mL (≈ 0.0196 µM)
- MIC (organism code ZZ): 64 µg/mL (≈ 83.4 µM)
- MIC (organism code ZZA): 0.5 µg/mL (≈ 0.652 µM)
